Data from paper PMC12040169 (PLOS Biology, 2025).

Assay: in vitro
Conditions: human, hela cells, % viability

| Compound | viability at 28.5 h, 10 µM |
| --- | --- |
| CC(Nc1cc(Cl)c(C(F)(F)F)cc1[N+](=O)[O-])c1ccc2[nH]c(=O)[nH]c2c1 (stereo not shown) [CBK297721] | 86.7% |
| CCOCN(C(=O)Cn1c(C(C)O)nc2ccccc21)c1c(C)cccc1CC (stereo not shown) [CBK297722] | 87.6% |
| Cc1ccc(C)c(C2C(C(=O)c3ccccc3Cl)=C(O)C(=O)N2c2ccc(CC(=O)O)cc2)c1 (stereo not shown) [CBK297723] | 90.7% |
| CSc1nc2ccc(Nc3cc(C)nc4ncnn34)cc2s1 [CBK297724] | 105% |
| CN(Cc1cccnc1)C(=O)Cc1ccc(-n2cccn2)cc1 [CBK297726] | 85.6% |
| C#CCNS(=O)(=O)c1ccc(C(=O)Nc2ccnn2Cc2ccccc2)cc1 [CBK297727] | 96.4% |
| OCCCc1nc2ccccc2n1CCOc1ccccc1 [CBK297728] | 97.8% |
| O=C(Nc1cccc(N2CCCC2=O)c1)c1ccccc1Nc1ccccc1 [CBK297729] | 85.8% |
| Cc1n[nH]c(-c2ccccc2NC(=O)Cc2sc(C)nc2-c2cccs2)n1 [CBK297737] | 88.5% |
| CCCc1n[nH]c(=S)n1CC(=O)NCc1ccc(N2CC(C)OC(C)C2)nc1 (stereo not shown) [CBK297741] | 90.4% |
| CCCc1n[nH]c(=S)n1CC(=O)NCc1ccc(Oc2cc(C)ccc2C)nc1 [CBK297742] | 87.5% |
| CCCc1n[nH]c(=S)n1CC(=O)NCc1ccc(OCCC(C)C)c(OC)c1 [CBK297743] | 84.4% |
| CCCC(=O)NC1CCN(C(=O)c2snnc2CC)CC1 [CBK297744] | 97.3% |
| COc1ccc(NS(=O)(=O)c2ccc3c(c2)N(CC(=O)O)C(=O)CO3)cc1NS(C)(=O)=O [CBK297745] | 90.1% |
| CC(NC(=O)CCCC(=O)c1cccs1)c1cccc2ccccc12 (stereo not shown) [CBK297748] | 105% |
| CC(CNC(=O)c1ccc([N+](=O)[O-])o1)N1CCc2sccc2C1 (stereo not shown) [CBK297749] | 87.9% |
| Cc1cc(N(C)Cc2ccccc2Br)nc(N)n1 [CBK297753] | 70.2% |
| Cn1c(Sc2ccc(C#N)cn2)nnc1-c1ccco1 [CBK297756] | 111% |
| C=CCn1c(-c2sc(NC(=O)c3[nH]c4c(c3C)C(=O)CC(C)(C)C4)nc2C)n[nH]c1=S [CBK297757] | 91% |
| Cc1csc(NC(=O)c2c(C)c(C)n[nH]c2=O)n1 [CBK297759] | 84.4% |
| CCN(CC(=O)NCc1cccs1)C(=O)CN1CCCC1c1ccc(C)cc1 (stereo not shown) [CBK297761] | 104% |
| Cc1c(C(=O)Nc2cccc(S(=O)(=O)NCc3ccco3)c2)cnn1-c1ccccc1 [CBK297762] | 89.7% |

| Compound | viability at 28.5 h, 10 µM |
| --- | --- |
| COc1ccc(C(=O)O)cc1S(=O)(=O)Nc1cccc(C=Cc2ccccn2)c1 [CBK297763] | 110% |
| O=C(Cn1c(-c2cccs2)n[nH]c1=S)N1CCC(c2nc3cc(Cl)ccc3o2)CC1 [CBK297765] | 95% |
| Cc1ccc(S(=O)(=O)Nc2ccc(C(C)C)cc2)cc1C(=O)O [CBK297766] | 84.2% |
| CC(=O)NCCNC(=O)c1cc(Br)c[nH]1 [CBK297767] | 88.3% |
| Cc1ccc(CN2CCCN(C(=O)Cn3nc4ccccn4c3=O)CC2)cc1 [CBK297768] | 79.7% |
| CCCCN(C(=O)C(F)(F)c1ccccc1)c1c(N)n(CCC)c(=O)[nH]c1=O [CBK297769] | 91.4% |
| Cc1ccc(-c2nc(C)c(C(=O)Nc3ccc(-n4cncn4)nc3)s2)o1 [CBK297770] | 95.3% |
| Cc1nc(-c2ccco2)nc2sc(C(=O)NCc3nnc4ccccn34)c(C)c12 [CBK297773] | 107% |
| Cc1nc(COC(=O)c2ccc(C#N)c(C)n2)cs1 [CBK297775] | 88.9% |
| Cc1ccn2c(=O)cc(COC(=O)c3sc4nc(C)cc(C)c4c3N)nc2c1 [CBK297783] | 93.3% |
| CC(C)CN(CC(C)C)C(=O)Cn1cc([N+](=O)[O-])cc(C(N)=O)c1=O [CBK297784] | 83.9% |
| COc1ccc(C2=NN(C(=O)CCCC(=O)O)C(c3ccc4nccnc4c3)C2)cc1OC (stereo not shown) [CBK297785] | 84.2% |
| CCc1nn2c(=O)cc(CNc3ccc4c(c3)OCCO4)nc2s1 [CBK297787] | 99.2% |
| COC(=O)c1cc(C#N)c(=O)n(CC(=O)N(C)Cc2ccsc2)c1 [CBK297788] | 115% |
| O=C(CNC(=O)c1ccc(OC(F)F)cc1)NCCCn1cccn1 [CBK297789] | 106% |
| CC(NC(=O)CS(=O)(=O)Cc1ccc(C#N)cc1)c1ccc(C#N)cc1 (stereo not shown) [CBK297791] | 91.1% |
| Cc1ccc(CN2CCCN(C(=O)CCn3cnc4c(cnn4C)c3=O)CC2)cc1 [CBK297793] | 79.8% |
| Cn1nnnc1-c1cccc(NC(=O)c2ccc(Oc3ccccc3)cc2)c1 [CBK297872] | 81.6% |
| CCOC(=O)c1sc2cccc(F)c2c1COC(=O)c1ccc(CNC(N)=O)cc1 [CBK297873] | 101% |
| Cc1cc(C(=O)CSc2nnc(-c3ccccc3F)n2CC(C)C)c(C)[nH]1 [CBK297877] | 85.1% |
| CCOC(=O)C1=C(C)N(c2ccc(C(=O)O)cc2)C(=O)NC1c1ccc(OC(F)F)c(OC)c1 (stereo not shown) [CBK297878] | 90.1% |
| CCC(CC)(CC(=O)Nc1ccc(N2CCCC2=O)c(C)c1)C(=O)O [CBK297881] | 101% |

| Compound | viability at 28.5 h, 10 µM |
| --- | --- |
| CCC(CC)(CC(=O)Nc1ccc2nc(C)sc2c1)C(=O)O [CBK297882] | 112% |
| Cc1cc(N2CCCC2)ccc1NC(=O)CCn1c(-c2cccs2)n[nH]c1=S [CBK297883] | 86.6% |
| CCOC(=O)NC(=O)CSc1nnc(C2COc3ccccc3O2)n1-c1ccccc1 (stereo not shown) [CBK297884] | 88.9% |
| Cc1ccc(C(=O)CCC(=O)N2CCCC2c2ccc(F)cc2)cc1 (stereo not shown) [CBK297885] | 96.2% |
| C=CCn1c(-c2sc(NC(=O)Cn3c(=O)n(CCC)c4ccccc43)nc2C)n[nH]c1=S [CBK297890] | 97.7% |
| Cn1cccc1C(=O)NCCNC(=O)c1cc2ccccc2[nH]1 [CBK297894] | 87.7% |
| O=C(c1cc(O)nc2ccccc12)N1CCN(S(=O)(=O)N2CCCC2)CC1 [CBK297898] | 88.6% |
| CC(OC(=O)c1ccc2nccnc2c1)c1cccc([N+](=O)[O-])c1 (stereo not shown) [CBK297901] | 78.5% |
| OC(COc1ccccc1F)CSc1nc(NC2CC2)c2ccccc2n1 (stereo not shown) [CBK297902] | 86.7% |
| Cc1[nH]c2ccccc2c1C(=O)CSc1nccn1Cc1ccccc1 [CBK297905] | 76.6% |
| COc1ccc(C(=O)Nc2c(C)nn(-c3ccccc3)c2C)cc1S(=O)(=O)NC1CC1 [CBK297906] | 85.7% |
| Cc1ccc(-c2n[nH]c(=S)n2CC(=O)N(C)Cc2ccc(N3CCOCC3)cc2)cc1 [CBK297908] | 85.9% |
| C=CCn1c(-c2sc(NC(=O)CN3C(=C)c4ccccc4C3=O)nc2C)n[nH]c1=S [CBK297909] | 84.4% |
| CC(C)C(=O)N1CCN(C(=O)Cn2c(-c3ccc(Cl)cc3)n[nH]c2=S)CC1 [CBK297910] | 100% |
| Cc1ccc(S(=O)(=O)N2CCCN(CC(O)c3ccccc3)CC2)cc1 (stereo not shown) [CBK297911] | 104% |
| Cc1[nH]c2ccccc2c1C(=O)CSc1nncc2ccccc12 [CBK297912] | 92.1% |
| COc1ccc(O)c(C(=O)c2cnn(-c3ccc(Cl)c(C(=O)O)c3)c2)c1 [CBK297914] | 90.2% |
| CN(C)c1cc(CNC(=O)c2cc3ccccc3oc2=O)ccn1 [CBK297917] | 88.8% |
| CN(C)C(=O)CN1CCN(C(=O)c2ccccc2C(=O)c2ccc(F)cc2)CC1 [CBK297921] | 89.5% |
| Cc1ccc(-c2n[nH]c(=S)n2CCC(=O)NCc2ccc(-c3csc(C)n3)s2)cc1 [CBK297924] | 84.5% |
| CSc1nc(C)c(CCC(=O)N(C)Cc2c(C)nn(-c3ccccc3)c2C)c(=O)[nH]1 [CBK297925] | 84.5% |
| COC(=O)c1cc(C#N)c(=O)n(CC(=O)Nc2ccc(OC)c(OC)c2)c1 [CBK297926] | 102% |

| Compound | viability at 28.5 h, 10 µM |
| --- | --- |
| Cc1nn(Cc2ccccc2)c(C)c1CNC(=O)c1nc(Cl)ccc1Cl [CBK297928] | 93.8% |
| CC(=O)c1ccccc1NC(=O)c1cc2ccc(F)cc2nc1C [CBK297929] | 89.2% |
| CC(C)CN1CCOC(CNC(=O)c2cc(O)nc3ccccc23)C1 (stereo not shown) [CBK297931] | 80.6% |
| Cc1nc2ccccc2nc1COC(=O)c1ccc(S(=O)(=O)N2CCCCC2C)cc1 (stereo not shown) [CBK297932] | 90.7% |
| O=C(NCC1(N2CCOCC2)CCCCC1)c1ccccc1C(=O)c1ccc(F)cc1 [CBK297938] | 81% |
| Cc1cccc(-c2n[nH]c(=S)n2CC(=O)NCc2cn(-c3ccccc3)nc2-c2ccccc2)c1 [CBK297941] | 88.1% |
| Cc1cccc(-c2n[nH]c(=S)n2CC(=O)NCCCS(=O)(=O)Cc2ccccc2)c1 [CBK297942] | 103% |
| COc1ccc(NS(=O)(=O)c2cc(C(=O)O)sc2Br)cn1 [CBK297943] | 81.8% |
| COc1ccc(NC(=O)C2CC3CCC2C3)cc1S(=O)(=O)Nc1ccc(Cl)cc1 (stereo not shown) [CBK297945] | 79.4% |
| Cc1cc(S(=O)(=O)Nc2ccc(C(C)(C)C)cc2)sc1C(=O)O [CBK297946] | 88.1% |
| O=C(NCc1cccnc1-n1cccn1)c1c[nH]c(C(=O)N2CCCC2)c1 [CBK298263] | 99.1% |
| COc1ccc(C)cc1C(O)CN1CCOC(c2ccc(F)cc2)C1 (stereo not shown) [CBK298264] | 95.5% |
| CC(NC(=O)Nc1ccc(C(=O)NC(C)(C)C)cc1)c1cccc(Cl)c1 (stereo not shown) [CBK298265] | 87.8% |
| CSc1nc(C)c(CCC(=O)Nc2ccc(N3CC(C)OC(C)C3)nc2)c(C)n1 (stereo not shown) [CBK298266] | 87.4% |
| COc1ccc2cc(COC(=O)c3ccc([S+](C)[O-])cc3)c(Cl)nc2c1 (stereo not shown) [CBK298267] | 99.5% |
| O=C(C1CC1)N1CCC(C(=O)N(Cc2ccco2)c2ccccc2)CC1 [CBK298269] | 85.8% |
| Cc1ccc(C2=CCN(C(=O)c3cccc(S(=O)(=O)N(C)C)c3)CC2)cc1 [CBK298273] | 90.9% |
| Cc1ncc(CN(C)C(C)C(=O)Nc2ccccc2N2CCCC2=O)s1 (stereo not shown) [CBK298274] | 92% |
| Cc1ccc(Cc2cnc(NC(=O)c3ccoc3C)s2)cc1C [CBK298277] | 80.1% |
